The values below come from paper PMC3104989 (PLoS ONE, 2011).

As usually defined, the IC50 is the concentration needed to halve the response being measured. A high value points to weaker potency in that assay. The remaining activity is what remains of the control signal, in per cent.

The target of one assay is T1, Hog1 (Saccharomyces cerevisiae, UniProt P32485).
T1 sequence (P32485 2-435): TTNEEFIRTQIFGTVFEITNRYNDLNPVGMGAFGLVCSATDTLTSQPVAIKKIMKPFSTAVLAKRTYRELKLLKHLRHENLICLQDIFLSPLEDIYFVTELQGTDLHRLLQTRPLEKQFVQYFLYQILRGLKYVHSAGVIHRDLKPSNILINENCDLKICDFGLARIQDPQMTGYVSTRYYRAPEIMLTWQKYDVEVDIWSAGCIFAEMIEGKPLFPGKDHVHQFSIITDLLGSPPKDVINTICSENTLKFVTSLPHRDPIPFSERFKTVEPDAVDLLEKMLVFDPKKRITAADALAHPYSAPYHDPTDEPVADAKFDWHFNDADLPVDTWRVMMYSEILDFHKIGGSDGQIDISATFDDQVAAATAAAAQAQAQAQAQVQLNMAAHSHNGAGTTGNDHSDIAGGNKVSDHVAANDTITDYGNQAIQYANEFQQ
Kind of assay: in vitro radiometric kinase assay with biotinylated Sic1 peptide. It is filed as biochemical.
In turn, `CC(C)Nc1cc(-c2c(-c3ccccc3)nnn2Cc2ccccc2)ccn1` [4a, 4-(1-benzyl-4-phenyl-1H-1,2,3-triazol-5-yl)-N-isopropylpyridin-2-amine] showed an IC50 of 7.4 ± 0.41 nM. As for `CC(C)Nc1cc(-c2c(-c3ccc(F)cc3)nnn2Cc2ccccc2)ccn1` [4b, 4-(1-benzyl-4-(4-fluorophenyl)-1H-1,2,3-triazol-5-yl)-N-iso-propyl-pyridin-2-amine], inhibition was half-maximal at 6.2 ± 2.2 nM (IC50).

Another assay concerns the target T1, Hog1. Kind of assay: in vitro radiometric kinase assay, single dose […]. It counts as biochemical.
In the case of `Fc1ccc(-c2nnn(CC3CC3)c2-c2ccncc2)cc1` [1a], the remaining activity at 0.1 µM was 50 to 70%. `c1ccc(Cn2nnc(-c3ccccc3)c2-c2ccncc2)cc1` [1b] showed a remaining activity at 0.1 µM of 50 to 70%.

In turn, `Fc1ccc(-c2nnn(Cc3ccccc3)c2-c2ccncc2)cc1` [1c] displayed a remaining activity at 0.1 µM of 50 to 70%. `Clc1ccc(-c2nnn(Cc3ccccc3)c2-c2ccncc2)cc1` [1d] returned a remaining activity at 0.1 µM of 50 to 70%. As to `Brc1ccc(-c2nnn(Cc3ccccc3)c2-c2ccncc2)cc1` [1e], the remaining activity at 0.1 µM lay within 50 to 70%. Consider `CC1CCC(Nc2cc(-c3c(-c4ccc(F)cc4)nnn3Cc3ccccc3)ccn2)CC1` (stereo not drawn) [4d, 4-(1-benzyl-4-(4-fluorophenyl)-1H-1,2,3-triazol-5-yl)-N-(4-methyl-cyclohexyl)pyridin-2-amine], for which the remaining activity at 0.1 µM was 35 to 40%. Regarding `C[C@H](Nc1cc(-c2c(-c3ccc(F)cc3)nnn2Cc2ccccc2)ccn1)c1ccccc1` [4e, (S)-4-(1-benzyl-4-(4-fluorophenyl)-1H-1,2,3-triazol-5-yl)-N-(1-phenylethyl)pyridin-2-amine], the remaining activity at 0.1 µM fell in the range of 35 to 40%.
